According to ChEMBL document CHEMBL5608113, “Targeting of CAF-induced therapy resistance in CRC organoid-stroma co-cultures” (2024):

Key:
Type in all cases: functional, Homo sapiens
Settings in all cases: Homo sapiens, read-out: Cell Viability; for viability at 10 µM: Concentration 10 uM; for viability at 1 µM: Concentration 1 uM
[1] = system: Colon cancer organoid; experiment: Targeting of F14 CAF-induced therapy resistance in O23 CRC organoid-stroma co-culture. Cell viability is reported with Gefitinib.
[2] = system: Colon cancer organoid; experiment: Targeting of F14 CAF-induced therapy resistance in O14 CRC organoid-stroma co-culture. Cell viability is reported without Gefitinib.
[3] = system: Colon cancer organoid; experiment: Targeting of F14 CAF-induced therapy resistance in O23 CRC organoid-stroma co-culture. Cell viability is reported with SN-38.
[4] = system: Colon cancer organoid; experiment: Targeting of F14 CAF-induced therapy resistance in O14 CRC organoid-stroma co-culture. Cell viability is reported with Gefitinib.
[5] = system: Colon cancer organoid; experiment: Targeting of F14 CAF-induced therapy resistance in O23 CRC organoid-stroma co-culture. Cell viability is reported without Gefitinib.

SMILES	viability at 10 µM [1]	viability at 10 µM [2]	viability at 10 µM [3]	viability at 10 µM [4]	viability at 10 µM [5]	viability at 1 µM [1]	viability at 1 µM [2]	viability at 1 µM [3]	viability at 1 µM [4]	viability at 1 µM [5]
CC(=O)N1CCC(c2ccc(C(=O)NC(=N)N)cc2C(F)(F)F)CC1 [BI 9627]	53.2%	102%	106%	42.9%	109%	–	–	–	–	–
NC1(c2ccc(-c3nc4ccn5c(=O)[nH]nc5c4cc3-c3ccccc3)cc2)CCC1	19.9%	53.7%	19.5%	32.7%	24.5%	–	–	–	–	–
CO[C@H]1CNC[C@@H](OCC2CCC(F)(F)CC2)[C@@H]1Nc1ncc(-c2cncc(C)c2)c2cc(C)c(=O)[nH]c12	78.8%	78.7%	81.8%	65.2%	104%	–	–	–	–	–
COc1ccccc1S(=O)(=O)Nc1ccc2c(c1)CN(C)C(=O)N2	53.9%	101%	73.2%	57.5%	105%	–	–	–	–	–
CC(=O)c1cc(-c2cc(C(=O)NC3CC3)ccc2C)c2ncccn12	71.5%	83.8%	91.2%	65.1%	108%	–	–	–	–	–
O[C@]1(C(F)(F)F)CCCC[C@H]1Nc1ccc(F)cc1 [BAY-390]	–	–	–	–	–	64.2%	92.1%	51%	34%	153%
N#CC1(c2ccccn2)CCN(Cc2cc(C(=O)N3CCCC3)c(=O)n3ccccc23)CC1 [MSD-M1PAM-NC]	81.2%	93.4%	63.2%	35.2%	136%	–	–	–	–	–
Cc1cc(CN)cc(C)c1-c1ncn(C)c1-c1ccnc2cc(F)ccc12	53.8%	90.5%	86.8%	63.2%	122%	–	–	–	–	–
CCCCN(CCCC)C(=O)CN1C[C@@H](c2cc(OC)c3c(c2)OCO3)[C@H](C(=O)O)[C@H]1CC(C)(C)CCC [A-545]	47%	83.6%	88.5%	61.5%	142%	–	–	–	–	–
Cc1nc(C2CCN(C(=O)c3ccc(OC(F)(F)F)cc3N)CC2)c2ncc(N3CCN(C)CC3)cc2n1 [BAY-693]	46.5%	76.4%	53.6%	32.1%	119%	–	–	–	–	–
CN(C)C(=O)Cn1cc(-c2nc([C@@](C)(c3ccc(-c4cnc(N)nc4)cc3)C3CC3)no2)cn1 [BI 665915]	–	–	–	–	–	79.9%	102%	85.2%	56.8%	181%
Cc1cc2c(-c3ccco3)cnc(N[C@@H]3CCN(C)C[C@H]3C(=O)NC3CCCCC3)c2[nH]c1=O [GSK789]	29.8%	84.8%	38.8%	26.6%	72.5%	–	–	–	–	–
CCNC(=O)c1cc2c(N3CCOC[C@@H]3C)ccnc2n1C	38.3%	70.2%	84.1%	36.3%	104%	–	–	–	–	–
CC1=C(C)C(=O)C(C(C)(C)CC(=O)N(CCCCSC[C@H]2O[C@@H](n3cnc4c(N)ncnc43)[C@@H]3OC(C)(C)O[C@@H]32)Cc2cccc(-c3ccc(Cl)cc3)c2)=C(C)C1=O	7.29%	121%	9.16%	66.1%	8.34%	–	–	–	–	–
CC(C)Oc1ccc(-c2c[nH]cc2CN(C)CCN)cc1	47.4%	25.7%	77%	31.6%	132%	–	–	–	–	–
